Drawing on ChEMBL document CHEMBL5214953, “Structure-activity-relationship study of semi-synthetically modified fusicoccins on their stabilization effect for 14-3-3-phospholigand interactions” (Bioorg Med Chem, 2022), this text covers Kd, Activity and IC50 for 21 compounds.

Test [1] is described as follows: Stabilization of mode-3 phosphopeptide FAM-KRSHpSV binding to recombinant 14-3-3 zeta (unknown origin) measured by fluorescence polarization assay. Also on record: species or system Homo sapiens. A general note: Fluorescence polarisation rises when a labelled molecule tumbles more slowly, as on binding a larger partner.
A short description of test [2]: Stabilization of mode-1 phosphopeptide FAM-KRSHpSVP binding to recombinant 14-3-3 zeta (unknown origin) measured by fluorescence polarization assay. Set-up: species or system Homo sapiens.
In test [3] the test system is HEK293. Description: Antiproliferative activity against human HEK293 cells at 5 to 80 uM measured after 48 hrs by WST assay. Type of test: functional, cell-based. The note with it: dose 5-80 µM.
The subject of test [4] is HL-60. Description: Antiproliferative activity against human HL-60 cells measured after 48 hrs by WST assay. The test is classed as functional, cell-based. The note with it: HL-60, 48 h.
The test system of test [5] is HL-60. Description: Antiproliferative activity against human HL-60 cells at 5 to 80 uM measured after 48 hrs by WST assay. Particulars: dose 5-80 µM. The test is classed as functional, cell-based.

The source made the active and inactive calls. The rule behind the calls is not given here.

Take `C=CC(C)(C)OC[C@H]1O[C@H](O[C@@H]2C3=C(C(C)C)C[C@H](OCc4ccccc4C(=O)OC)[C@]3(C)/C=C3/[C@@H](COC)CC[C@H]3[C@@H](C)[C@H]2O)[C@H](O)[C@@H](O)[C@@H]1O`: the Kd is 0.53 µM in test [1] and 0.66 µM in test [2].

Consider `CC(C)C1=C2[C@@H](O[C@H]3O[C@@H]4COC(C)(C)O[C@H]4[C@H](O)[C@H]3O)[C@H](O)[C@H](C)[C@@H]3CC[C@H](COC(F)(F)F)/C3=C/[C@@]2(C)CC1`, for which the Kd in test [2] was 0.65 µM.

Take `COC[C@H]1CC[C@@H]2/C1=C\[C@@]1(C)CCC(C(C)C)=C1[C@@H](O[C@H]1O[C@@H]3COC(C)(C)O[C@H]3[C@H](O)[C@H]1O)[C@H](O)[C@@H]2C`: the results for the Kd in test [1] and in test [2] were 0.096 µM and 0.23 µM, respectively. Moreover, the result in test [3] was Active.

As for `C=CC(C)(C)OC[C@H]1O[C@H](O[C@@H]2C3=C(C(C)C)C[C@H](OCc4ccc(C(=O)OC)cc4)[C@]3(C)/C=C3/[C@@H](COC)CC[C@H]3[C@@H](C)[C@H]2O)[C@H](O)[C@@H](O)[C@@H]1O`, the results for the Kd in test [1] and in test [2] were 0.6 µM and 0.68 µM, respectively.

For `C=CC(C)(C)OC[C@H]1O[C@H](O[C@@H]2C3=C(C(C)C)C[C@H](OCc4ccccc4C(=O)O)[C@]3(C)/C=C3/[C@@H](COC)CC[C@H]3[C@@H](C)[C@H]2O)[C@H](O)[C@@H](O)[C@@H]1O`, the values for the dissociation constant (Kd) in test [1] and in test [2] were 0.48 µM and 0.54 µM, respectively.

Regarding `COC[C@H]1CC[C@@H]2/C1=C\[C@@]1(C)CCC(C(C)C)=C1[C@@H](O[C@H]1O[C@@H]3CO[C@@H](OCCCN)[C@@H]3[C@H]1O)[C@H](O)[C@@H]2C`, half-maximal inhibition in test [4] (IC50) required 10 µM.

With `C=CC(C)(C)OC[C@H]1O[C@H](O[C@@H]2C3=C(C(C)C)C[C@H](OCc4ccccc4N=[N+]=[N-])[C@]3(C)/C=C3/[C@@H](COC)CC[C@H]3[C@@H](C)[C@H]2O)[C@H](O)[C@@H](O)[C@@H]1O`, the equilibrium dissociation constant (Kd) is 0.48 µM in test [1] and 0.68 µM in test [2].

Take `COC[C@H]1CC[C@@H]2/C1=C\[C@@]1(C)CCC([C@H](C)CNC(=O)C3CC3)=C1[C@@H](O[C@H]1O[C@@H]3COC(C)(C)O[C@H]3[C@H](O)[C@H]1O)[C@H](O)[C@@H]2C`: the results for the Kd in test [1] and in test [2] were 0.041 µM and 0.11 µM, respectively. In addition, in test [3], the result was Active.

`COC[C@H]1CC[C@@H]2/C1=C\[C@@]1(C)CCC(C(C)C)=C1[C@@H](O[C@H]1O[C@H](CNCc3ccccc3)[C@@H](O)[C@H](O)[C@H]1O)[C@H](O)[C@@H]2C` returned an IC50 in test [4] of less than 5 µM. Moreover, the equilibrium dissociation constant (Kd) is 0.25 µM in test [1] and 0.31 µM in test [2].

For the compound `COC[C@H]1CC[C@@H]2/C1=C\[C@@]1(C)CCC(C(C)C)=C1[C@@H](O[C@H]1O[C@H](CN)[C@@H](O)[C@H](O)[C@H]1O)[C@H](O)[C@@H]2C`, the Kd was 0.07 µM in test [1] and 0.06 µM in test [2]. The result in test [5] was Active.

As for `COC[C@H]1CC[C@@H]2/C1=C\[C@@]1(C)CCC([C@H](C)CNC(C)=O)=C1[C@@H](O[C@H]1O[C@@H]3COC(C)(C)O[C@H]3[C@H](O)[C@H]1O)[C@H](O)[C@@H]2C`, the Kd was determined as 0.044 µM in test [1] and 0.11 µM in test [2]. Besides, the result in test [3] was Active.

As to `C=CC(C)(C)OC[C@H]1O[C@H](O[C@@H]2C3=C(C(C)C)C[C@H](OCc4ccc(C(=O)O)cc4)[C@]3(C)/C=C3/[C@@H](COC)CC[C@H]3[C@@H](C)[C@H]2O)[C@H](O)[C@@H](O)[C@@H]1O`, the Kd in test [1] is 0.39 µM; in test [2], 0.47 µM.

With `CCOC[C@H]1CC[C@@H]2/C1=C\[C@@]1(C)CCC(C(C)C)=C1[C@@H](O[C@H]1O[C@@H]3COC(C)(C)O[C@H]3[C@H](O)[C@H]1O)[C@H](O)[C@@H]2C`, the Kd in test [2] amounted to 0.75 µM.

With `C=CC(C)(C)OC[C@H]1O[C@H](O[C@@H]2C3=C(C(C)C)C[C@H](O)[C@]3(C)/C=C3/[C@@H](COC)CC[C@H]3[C@@H](C)[C@H]2O)[C@H](O)[C@@H](O)[C@@H]1O`, the equilibrium dissociation constant (Kd) in test [1] was 0.077 µM; in test [2], 0.43 µM.

As to `C=CC(C)(C)OC[C@H]1O[C@H](O[C@@H]2C3=C([C@H](C)CNC(C)=O)C[C@H](O)[C@]3(C)/C=C3/[C@@H](COC)CC[C@H]3[C@@H](C)[C@H]2O)[C@H](O)[C@@H](O)[C@@H]1O`, the Kd amounted to 0.038 µM in test [1] and 0.17 µM in test [2].

With `CC(C)OC[C@H]1CC[C@@H]2/C1=C\[C@@]1(C)CCC(C(C)C)=C1[C@@H](O[C@H]1O[C@@H]3COC(C)(C)O[C@H]3[C@H](O)[C@H]1O)[C@H](O)[C@@H]2C`, the dissociation constant Kd in test [2] was found to be 0.68 µM.

In the case of `CCCNC[C@H]1O[C@H](O[C@@H]2C3=C(C(C)C)CC[C@]3(C)/C=C3/[C@@H](COC)CC[C@H]3[C@@H](C)[C@H]2O)[C@H](O)[C@@H](O)[C@@H]1O`, the results for the Kd in test [1] and in test [2] were 0.12 µM and 0.16 µM, respectively. For the same compound, the outcome in test [5] was Active.

With `C=CC(C)(C)OC[C@H]1O[C@H](O[C@@H]2C3=C(C(C)C)C[C@H](OCc4ccc(C#N)cc4)[C@]3(C)/C=C3/[C@@H](COC)CC[C@H]3[C@@H](C)[C@H]2O)[C@H](O)[C@@H](O)[C@@H]1O`, the Kd in test [1] amounted to 0.38 µM; in test [2], 0.71 µM.

As to `COC[C@H]1CC[C@@H]2/C1=C\[C@@]1(C)CCC([C@H](C)CNC(=O)C3CCCCC3)=C1[C@@H](O[C@H]1O[C@@H]3COC(C)(C)O[C@H]3[C@H](O)[C@H]1O)[C@H](O)[C@@H]2C`, the Kd stood at 0.032 µM in test [1] and 0.13 µM in test [2]. For the same compound, the result in test [3] was Active.

For the compound `COC[C@H]1CC[C@@H]2/C1=C\[C@@]1(C)CCC([C@H](C)CNC(=O)C(F)(F)F)=C1[C@@H](O[C@H]1O[C@@H]3COC(C)(C)O[C@H]3[C@H](O)[C@H]1O)[C@H](O)[C@@H]2C`, the Kd in test [1] was 0.042 µM; in test [2], 0.08 µM. The result in test [3] was Active.

Turning to `C=CC(C)(C)OC[C@H]1O[C@H](O[C@@H]2C3=C(C(C)C)C[C@H](OCc4ccc(N=[N+]=[N-])cc4)[C@]3(C)/C=C3/[C@@H](COC)CC[C@H]3[C@@H](C)[C@H]2O)[C@H](O)[C@@H](O)[C@@H]1O`, the dissociation constant (Kd) in test [1] came out at 0.32 µM; in test [2] it was 0.62 µM.

As usually defined, the Kd is the concentration at which binding is half-saturated. For orientation: IC50 means the concentration that gives 50% inhibition. Read a low IC50 as inhibition by little substance.
